Like-named read-outs stand apart in the source and are kept apart here.
Assays:
[1] = molecular target: BCL-XLΔC (Homo sapiens, UniProt Q07817); assay: High-throughput competitive FP binding screen, FITC-BAD BH3/BCL-XLΔC interaction
[2] = system: MCL-1ΔNΔC; assay: High-throughput competitive FP binding screen, FITC-MCL-1 SAHB/MCL-1ΔNΔC interaction
[3] = molecular target: T1, MCL-1ΔNΔC (Homo sapiens, UniProt Q07820); assay: as above; parameters: the C-terminal alpha-helix was deleted from each of these constructs; GST (N, cleaved yes); made in house
T1 sequence (Q07820 172-320 limits assumed, stated change not applied): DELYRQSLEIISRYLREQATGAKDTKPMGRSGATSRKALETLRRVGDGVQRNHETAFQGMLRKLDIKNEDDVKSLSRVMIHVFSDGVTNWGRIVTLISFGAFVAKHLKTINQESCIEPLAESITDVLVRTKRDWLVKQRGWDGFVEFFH

[4] = molecular target: T1, MCL-1ΔNΔC; details: pre-incubation, re-concentration, FP with FITC-BID BH3
Method: A small sample was taken as a pre-dilution control. Compound-treated protein and unmodified protein were then diluted to a volume of 20 mL, and subsequently re-concentrated to 500 mL using 10K centrifugal filter units (Amicon). FP binding analysis was performed as described above by adding serial dilutions of compound-modified MCL-1 and unmodified MCL-1, both before and after dilution, followed by FITC-BID BH3 (15 nM) to a 96-well black flat bottom plate (Costar). FP measurements and analyses are then performed as described above.
Briefly, MCL-1ΔNΔC was pre-incubated with the small molecule inhibitors prior to dilution with buffer. The solution was concentrated to its original volume and fluorescence polarization was performed. Compounds that bind covalently will remain bound to the protein, whereas compounds that bind reversibly will be exchanged upon dilution.

[5] = FITC-BAD BH3/BCL-XLΔC interaction pair, competitive FP screen
[6] = selectivity for MCL-1ΔNΔC over BCL-XLΔC targeting (BCL-XL % Bound minus MCL-1 % Bound)
[7] = FITC-MCL-1 SAHB/MCL-1ΔNΔC interaction pair, competitive FP screen

Chain of BCL-XLΔC (Q07817 1-212 limits assumed, stated change not applied): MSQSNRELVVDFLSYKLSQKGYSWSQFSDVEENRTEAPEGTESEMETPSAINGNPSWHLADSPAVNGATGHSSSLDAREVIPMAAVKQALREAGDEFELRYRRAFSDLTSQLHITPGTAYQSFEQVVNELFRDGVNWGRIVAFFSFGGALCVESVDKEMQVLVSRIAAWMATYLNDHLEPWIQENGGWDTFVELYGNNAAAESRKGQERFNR

O=C(O)c1cccc(-c2ccc(/C=C3\Sc4ccccc4C3=O)o2)c1
BCL-XL % Bound [1, 5]: 95.42%
Spec Values [2, 6]: 64.25
MCL-1% Bound [3, 7]: 31.17%

Cc1c(Cl)cccc1N1C(=O)CC(Sc2nnnn2-c2ccccc2)C1=O (stereo not shown)
BCL-XL % Bound [1, 5]: 97.5%
Spec Values [2, 6]: 45.07
MCL-1% Bound [3, 7]: 52.43%

O=c1cc(-c2ccccc2)oc2cc(O)c(O)c(O)c12 [Baicailen, reference compound]
BCL-XL % Bound [1, 5]: 104.2%
Spec Values [2, 6]: 93.84
MCL-1% Bound [3, 7]: 10.32%

CC1=C(O)C(=O)C=C2C1=CC=C1[C@@]2(C)CC[C@@]2(C)[C@@H]3C[C@](C)(C(=O)O)CC[C@]3(C)CC[C@]12C [Celastrol, reference compound]
BCL-XL % Bound [1]: 97.09%
Spec Values [2]: 64.19
MCL-1% Bound [3]: 32.9%

Cc1cc2c(C(C)C)c(O)c(O)c(C=O)c2c(O)c1-c1c(C)cc2c(C(C)C)c(O)c(O)c(C=O)c2c1O [Gossypol]
mechanism of binding to MCL-1ΔNΔC upon dilution (reversible vs covalent) [4]: bound reversibly

Oc1c(Cl)cc(Cl)c(Cl)c1Cc1c(O)c(Cl)cc(Cl)c1Cl [Hexachlorophene, reference compound]
BCL-XL % Bound [1]: 100.4%
Spec Values [2]: 59.35
MCL-1% Bound [3]: 41.01%

O=c1c(O)c(-c2cc(O)c(O)c(O)c2)oc2cc(O)cc(O)c12 [Myricetin, reference compound]
BCL-XL % Bound [1, 5]: 102.4%
Spec Values [2, 6]: 68.23
MCL-1% Bound [3, 7]: 34.13%

O=c1c(O)c(-c2ccc(O)c(O)c2)oc2cc(O)cc(O)c12 [Quercetin, reference compound]
BCL-XL % Bound [1, 5]: 105.3%
Spec Values [2, 6]: 88.65
MCL-1% Bound [3, 7]: 16.69%

O=C(OCC1O[C@H](OC(=O)c2cc(O)c(O)c(OC(=O)c3cc(O)c(O)c(O)c3)c2)[C@H](OC(=O)c2cc(O)c(O)c(OC(=O)c3cc(O)c(O)c(O)c3)c2)[C@@H](OC(=O)c2cc(O)c(O)c(OC(=O)c3cc(O)c(O)c(O)c3)c2)[C@@H]1OC(=O)c1cc(O)c(O)c(OC(=O)c2cc(O)c(O)c(O)c2)c1)c1cc(O)c(O)c(OC(=O)c2cc(O)c(O)c(O)c2)c1 (stereo partly shown) [Tannic Acid, reference compound]
BCL-XL % Bound [1, 5]: 98.26%
Spec Values [2, 6]: 82.32
MCL-1% Bound [3, 7]: 15.94%

N#C/C(=C\c1ccc(O)c(O)c1)C(N)=S [Tyrphostin 47, reference compound]
BCL-XL % Bound [1]: 100.8%
Spec Values [2]: 66.21
MCL-1% Bound [3]: 34.55%

Cc1ccc2c(c1)CC[C@H]1C3CC[C@H](NCCCCCCN4C(=O)C=CC4=O)[C@@]3(C)CC[C@H]21 (stereo partly shown) [U73122, reference compound]
BCL-XL % Bound [1, 5]: 106.3%
Spec Values [2, 6]: 49.67
MCL-1% Bound [3, 7]: 56.6%

O=c1c(O)c(-c2cc(O)c(O)c(O)c2)oc2cc(O)cc(O)c12 [drawing 14]
BCL-XL % Bound [1, 5]: 102.4%
Spec Values [2, 6]: 68.23
MCL-1% Bound [3, 7]: 34.13%

N#C/C(=C\c1ccc(O)c(O)c1)C(N)=S [drawing 16]
BCL-XL % Bound [1]: 100.8%
Spec Values [2]: 66.21
MCL-1% Bound [3]: 34.55%

COc1ccc2c(c1)CC[C@@H]1C2CC[C@@]2(C)C1CC[C@@H]2NCCCCCCN1C(=O)CCC1=O (stereo partly shown) [drawing 18]
BCL-XL % Bound [1, 5]: 106.3%
Spec Values [2, 6]: 49.67
MCL-1% Bound [3, 7]: 56.6%

O=c1cc(-c2ccccc2)oc2cc(O)c(O)c(O)c12 [drawing 19]
BCL-XL % Bound [1, 5]: 104.2%
Spec Values [2, 6]: 93.84
MCL-1% Bound [3, 7]: 10.32%

O=c1oc2c(O)c(O)cc3c(=O)oc4c(O)c(O)cc1c4c23 [drawing 20]
BCL-XL % Bound [1, 5]: 90.58%
Spec Values [2, 6]: 89.32
MCL-1% Bound [3, 7]: 1.26%

Oc1c(Cl)cc(Cl)c(Cl)c1Cc1c(O)c(Cl)cc(Cl)c1Cl [drawing 23]
BCL-XL % Bound [1]: 100.4%
Spec Values [2]: 59.35
MCL-1% Bound [3]: 41.01%

O=C(OCC1O[C@H](OC(=O)c2cc(O)c(O)c(OC(=O)c3cc(O)c(O)c(O)c3)c2)[C@H](OC(=O)c2cc(O)c(O)c(OC(=O)c3cc(O)c(O)c(O)c3)c2)[C@@H](OC(=O)c2cc(O)c(O)c(OC(=O)c3cc(O)c(O)c(O)c3)c2)[C@@H]1OC(=O)c1cc(O)c(O)c(OC(=O)c2cc(O)c(O)c(O)c2)c1)c1cc(O)c(O)c(OC(=O)c2cc(O)c(O)c(O)c2)c1 (stereo partly shown) [drawing 25]
BCL-XL % Bound [1, 5]: 98.26%
Spec Values [2, 6]: 82.32
MCL-1% Bound [3, 7]: 15.94%

COc1ccc(N(C)C(=S)Nc2ccc3nc(-c4ccco4)c(-c4ccco4)nc3c2)cc1 [drawing 44]
BCL-XL % Bound [1, 5]: 81.17%
Spec Values [2, 6]: 72.84
MCL-1% Bound [3, 7]: 8.332%

CC1=NOC(=O)/C1=C/c1ccc(-c2ccc(Cl)cc2)o1 [drawing 53]
BCL-XL % Bound [1]: 101.5%
Spec Values [2]: 65.98
MCL-1% Bound [3]: 38.47%

CC1=C(C#N)C(=O)N=C(O)/C1=C\c1ccc(-c2ccc(S(N)(=O)=O)cc2)o1 [drawing 84]
BCL-XL % Bound [1, 5]: 98.2%
Spec Values [2, 6]: 76.4
MCL-1% Bound [3, 7]: 21.8%

O=C1NC(=O)N(CCC2=CCCCC2)C(=O)/C1=C/c1cnc(-c2ccccc2)nc1 [drawing 98]
BCL-XL % Bound [1]: 106.9%
Spec Values [2]: 63.4
MCL-1% Bound [3]: 43.51%

CCOc1cc(C(Nc2cccnc2)c2ccc3cccnc3c2O)ccc1O (stereo not shown) [drawing 145]
BCL-XL % Bound [1, 5]: 108.4%
Spec Values [2, 6]: 108.7
MCL-1% Bound [3, 7]: −0.3%

Cc1cc2c(C(C)C)c(O)c(O)c(C=O)c2c(O)c1-c1c(C)cc2c(C(C)C)c(O)c(O)c(C=O)c2c1O [drawing 158]
BCL-XL % Bound [1]: 101%
Spec Values [2]: 97.07
MCL-1% Bound [3]: 3.955%

O=c1cc(-c2ccccc2)oc2cc(O)c(O)c(O)c12 [drawing 161]
BCL-XL % Bound [1, 5]: 104.2%
Spec Values [2, 6]: 93.84
MCL-1% Bound [3, 7]: 10.32%

O=c1c(O)c(-c2ccc(O)c(O)c2)oc2cc(O)cc(O)c12 [drawing 167]
BCL-XL % Bound [1, 5]: 105.3%
Spec Values [2, 6]: 88.65
MCL-1% Bound [3, 7]: 16.69%

O=c1c(O)c(-c2ccc(O)c(O)c2)oc2cc(O)cc(O)c12 [drawing 172]
BCL-XL % Bound [1, 5]: 92.49%
Spec Values [2, 6]: 83.25
MCL-1% Bound [3, 7]: 9.24%

O=C(OCC1O[C@H](OC(=O)c2cc(O)c(O)c(OC(=O)c3cc(O)c(O)c(O)c3)c2)[C@H](OC(=O)c2cc(O)c(O)c(OC(=O)c3cc(O)c(O)c(O)c3)c2)[C@@H](OC(=O)c2cc(O)c(O)c(OC(=O)c3cc(O)c(O)c(O)c3)c2)[C@@H]1OC(=O)c1cc(O)c(O)c(OC(=O)c2cc(O)c(O)c(O)c2)c1)c1cc(O)c(O)c(OC(=O)c2cc(O)c(O)c(O)c2)c1 (stereo partly shown) [drawing 178]
BCL-XL % Bound [1, 5]: 98.26%
Spec Values [2, 6]: 82.32
MCL-1% Bound [3, 7]: 15.94%

CC1=C(C#N)C(=O)N=C(O)/C1=C\c1ccc(-c2ccc(S(N)(=O)=O)cc2)o1 [drawing 191]
BCL-XL % Bound [1, 5]: 98.2%
Spec Values [2, 6]: 76.4
MCL-1% Bound [3, 7]: 21.8%

CC1=C(C#N)C(=O)N=C(O)/C1=C\c1ccc(-c2ccc(S(N)(=O)=O)cc2)o1 [drawing 192]
BCL-XL % Bound [1, 5]: 93.7%
Spec Values [2, 6]: 76.4
MCL-1% Bound [3, 7]: 17.4%

COc1ccc(N(C)C(=S)Nc2ccc3nc(-c4ccco4)c(-c4ccco4)nc3c2)cc1 [drawing 205]
BCL-XL % Bound [1, 5]: 81.17%
Spec Values [2, 6]: 72.84
MCL-1% Bound [3, 7]: 8.322%

O=c1c(O)c(-c2cc(O)c(O)c(O)c2)oc2cc(O)cc(O)c12 [drawing 222]
BCL-XL % Bound [1, 5]: 102.4%
Spec Values [2, 6]: 68.23
MCL-1% Bound [3, 7]: 34.13%

N#C/C(=C\c1ccc(O)c(O)c1)C(N)=S [drawing 231]
BCL-XL % Bound [1]: 100.8%
Spec Values [2]: 66.21
MCL-1% Bound [3]: 34.55%

O=C1NC(=O)N(CCC2=CCCCC2)C(=O)/C1=C/c1cnc(-c2ccccc2)nc1 [drawing 249]
BCL-XL % Bound [1]: 106.9%
Spec Values [2]: 63.4
MCL-1% Bound [3]: 43.51%

CC1=NOC(=O)/C1=C/c1ccc(-c2ccc(Cl)cc2)o1 [drawing 255]
BCL-XL % Bound [1]: 101.5%
Spec Values [2]: 62.98
MCL-1% Bound [3]: 38.47%

Oc1c(Cl)cc(Cl)c(Cl)c1Cc1c(O)c(Cl)cc(Cl)c1Cl [drawing 274]
BCL-XL % Bound [1]: 100.4%
Spec Values [2]: 59.35
MCL-1% Bound [3]: 41.01%

COc1ccc2c(c1)CC[C@@H]1C2CC[C@@]2(C)C1CC[C@@H]2NCCCCCCN1C(=O)CCC1=O (stereo partly shown) [drawing 365]
BCL-XL % Bound [1, 5]: 106.3%
Spec Values [2, 6]: 49.67
MCL-1% Bound [3, 7]: 56.6%

— patent US20150315211A1, “SMALL MOLECULES FOR THE MODULATION OF MCL-1 AND METHODS OF MODULATING CELL DEATH, CELL DIVISION, CELL DIFFERENTIATION AND METHODS OF TREATING DISORDERS” (priority 2010, published 2015)
